Laboratory results taken from US8841312B2, “Fused pyridine, pyrimidine and triazine compounds as cell cycle inhibitors” (Amgen Inc., priority 2007, dated 2014).

Legend:
neointima formation = details: animal models; cited from earlier work
Cdk4/CyclinD1 = Cdk4/CyclinD1 (Homo sapiens (Human), UniProt P11802); experiment: Cdk4 kinase inhibition assay with recombinant Cdk4/CyclinD1, Rb substrate, [33P]-ATP filter plate; type: biochemical; details: 25 μM ATP, read-out: Cdk 4 IC50
How it was run: (§1)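 Recombinant Cdk4/CyclinD1 or Cdk6/CyclinD3 phosphorylated Rb protein with [33P]-ATP for 1 h at room temperature. Protein was TCA-precipitated on filter plates and bound radioactivity counted. IC50 by nonlinear regression.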

Cdk6/CyclinD3 = Cdk6/CyclinD3 (Homo sapiens (Human), UniProt Q00534); experiment: Cdk6 kinase inhibition assay with recombinant Cdk6/CyclinD3, Rb substrate, [33P]-ATP filter plate; type: biochemical; details: 25 μM ATP, read-out: Cdk 6 IC50
How it was run: as §1

Sequence of Cdk6/CyclinD3 (Q00534 whole entry): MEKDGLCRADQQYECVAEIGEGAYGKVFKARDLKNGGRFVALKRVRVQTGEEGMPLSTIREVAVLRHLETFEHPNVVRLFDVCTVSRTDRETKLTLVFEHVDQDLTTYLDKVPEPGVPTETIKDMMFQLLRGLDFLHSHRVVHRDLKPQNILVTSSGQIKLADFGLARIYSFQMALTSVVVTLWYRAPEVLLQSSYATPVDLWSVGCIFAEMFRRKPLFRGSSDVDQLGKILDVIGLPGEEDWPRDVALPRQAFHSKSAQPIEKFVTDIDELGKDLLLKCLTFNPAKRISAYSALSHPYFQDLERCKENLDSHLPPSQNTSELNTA
Sequence of Cdk6/CyclinD3 (P30281 whole entry partner): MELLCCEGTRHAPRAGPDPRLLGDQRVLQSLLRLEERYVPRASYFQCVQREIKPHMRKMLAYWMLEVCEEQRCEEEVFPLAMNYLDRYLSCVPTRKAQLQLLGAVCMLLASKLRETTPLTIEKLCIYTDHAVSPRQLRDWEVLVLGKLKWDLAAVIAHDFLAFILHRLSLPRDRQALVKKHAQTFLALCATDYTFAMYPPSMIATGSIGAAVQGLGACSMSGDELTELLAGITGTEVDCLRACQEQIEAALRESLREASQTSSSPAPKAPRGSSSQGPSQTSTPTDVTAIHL
Sequence of Cdk4/CyclinD1 (P11802 whole entry): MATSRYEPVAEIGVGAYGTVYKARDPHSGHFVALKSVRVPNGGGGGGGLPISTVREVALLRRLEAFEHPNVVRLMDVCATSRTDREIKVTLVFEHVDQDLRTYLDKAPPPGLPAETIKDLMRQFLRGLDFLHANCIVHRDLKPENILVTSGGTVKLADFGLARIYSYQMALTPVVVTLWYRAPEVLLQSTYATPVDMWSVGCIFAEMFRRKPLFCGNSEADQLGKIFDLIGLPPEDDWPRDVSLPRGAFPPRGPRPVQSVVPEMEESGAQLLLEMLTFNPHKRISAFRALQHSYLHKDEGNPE
Sequence of Cdk4/CyclinD1 (P24385 whole entry partner): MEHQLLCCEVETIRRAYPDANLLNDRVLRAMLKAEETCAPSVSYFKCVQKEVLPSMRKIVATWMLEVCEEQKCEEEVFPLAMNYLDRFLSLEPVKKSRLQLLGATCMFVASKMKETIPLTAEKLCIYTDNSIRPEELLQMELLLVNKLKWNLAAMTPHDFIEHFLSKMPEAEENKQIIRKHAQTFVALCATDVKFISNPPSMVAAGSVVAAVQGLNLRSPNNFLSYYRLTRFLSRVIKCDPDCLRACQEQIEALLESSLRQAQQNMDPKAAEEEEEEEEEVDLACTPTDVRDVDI

With `COc1ccc(CNc2nc(N(CCO)CCO)nc3c2ncn3C(C)C)cc1` [CVT-313] as the compound, how does the “inhibition of neointima formation” value (neointima formation) read?
Its value is “significant inhibition of neointima formation”.

For `C[C@H](C1CCCCC1)n1c2cnccc2c2cnc(Nc3ccc(N4CCNCC4)cn3)nc21` [Example 28, (R)-[9-(1-Cyclohexyl-ethyl)-9H-pyrido[4′,3′:4,5]pyrrolo[2,3-d]pyrimidin-2-yl]-(5-piperazin-1-yl-pyridin-2-yl)-amine], which IC50 (Cdk4/CyclinD1) is on record?
The IC50 was 57 nM.

And the IC50 (Cdk6/CyclinD3)?
The IC50 was 61 nM.

With `O=S1(=O)CCC(Nc2ccc(Nc3ncc4c5ccncc5n(C5CCCC5)c4n3)nc2)C1` (centres unmarked) [Example 65] as the compound, how does the IC50 (Cdk4/CyclinD1) read?
The IC50 was 9.6 nM.

What about the IC50 (Cdk6/CyclinD3) of the same compound?
Its IC50 is 24 nM.

What does the source list for `CCN(CCO)C1CCN(c2ccc(Nc3ncc4c5ccncc5n(C5CCCC5)c4n3)nn2)CC1` [Example 454]?
IC50 (Cdk4/CyclinD1): 5.2 nM; IC50 (Cdk6/CyclinD3): 11 nM

With `CN(C)C1CCN(c2ccc(Nc3ncc4c5ccnc(F)c5n(CC5CC5)c4n3)nn2)CC1` [Example 169] as the compound, how does the IC50 (Cdk4/CyclinD1) read?
The IC50 was 140 nM.

What about the IC50 (Cdk6/CyclinD3) of the same compound?
The IC50 was 150 nM.

With `CN1CCN(c2ccc(Nc3ncc4c5ccccc5n(C5CCCC5)c4n3)nn2)CC1` [Example 301] as the compound, how does the IC50 (Cdk4/CyclinD1) read?
Its IC50 is 31 nM.

What about the IC50 (Cdk6/CyclinD3) of the same compound?
The IC50 was 22 nM.

Which results are given for `OCC1CCN(c2ccc(Nc3ncc4c5ccnc(F)c5n(C5CCCC5)c4n3)nc2)CC1` [Example 187, (1-(6-((9-Cyclopentyl-8-fluoro-9H-pyrido[4′,3′:4,5]pyrrolo[2,3-d]pyrimidin-2-yl)amino)-3-pyridinyl)-4-piperidinyl)methanol]?
IC50 (Cdk4/CyclinD1): 2.9 nM; IC50 (Cdk6/CyclinD3): 2.8 nM

With `c1ccc2c(c1)CCC2n1c2cnccc2c2cnc(Nc3ccc(N4CCNCC4)cn3)nc21` (centres unmarked) [Example 25, (9-Indan-1-yl-9H-pyrido[4′,3′:4,5]pyrrolo[2,3-d]pyrimidin-2-yl)-(5-piperazin-1-yl-pyridin-2-yl)-amine] as the compound, how does the IC50 (Cdk4/CyclinD1) read?
The IC50 was 30 nM.

And the IC50 (Cdk6/CyclinD3)?
Its IC50 is 38 nM.

What does the source list for `CNC1CCN(c2ccc(Nc3ncc4c5ccnc(F)c5n(C5CCCC5)c4n3)nc2)CC1` [Example 310]?
IC50 (Cdk4/CyclinD1): 5 nM; IC50 (Cdk6/CyclinD3): 13 nM

For `CC1CN(c2ccc(Nc3ncc4c5ccccc5n(C5CCCC5)c4n3)nn2)CC(C)N1` (centres unmarked) [Example 306], which IC50 (Cdk4/CyclinD1) is on record?
The IC50 was 13 nM.

And the IC50 (Cdk6/CyclinD3)?
The IC50 was 39 nM.

Which IC50 (Cdk4/CyclinD1) does the source give for `O=S1(=O)CCC(Nc2ccc(Nc3ncc4c5ccncc5n(C5CCCC5)c4n3)nn2)C1` (centres unmarked) [Example 93] here?
Its IC50 is 3.1 nM.

And the IC50 (Cdk6/CyclinD3)?
The IC50 was 15.9 nM.

With `c1cc2c3cnc(Nc4ccc(N5CCCNCC5)nn4)nc3n(C3CCCC3)c2cn1` [Example 117] as the compound, how does the IC50 (Cdk4/CyclinD1) read?
Its IC50 is 5.5 nM.

What about the IC50 (Cdk6/CyclinD3) of the same compound?
The IC50 was 6.8 nM.

For `COc1ccc(-n2c3cnccc3c3cnc(Nc4ccc(N5CCNCC5)cn4)nc32)cc1` [Example 16], which IC50 (Cdk4/CyclinD1) is on record?
The IC50 was 10 nM.

And the IC50 (Cdk6/CyclinD3)?
The IC50 was 21 nM.

Which results are given for `CC(C)NC1CCN(c2ccc(Nc3ncc4c5ccncc5n(C5CCCC5)c4n3)nc2)CC1` [Example 469]?
IC50 (Cdk4/CyclinD1): 5.7 nM; IC50 (Cdk6/CyclinD3): 20 nM

For `OC[C@H](O)CNC1CCN(c2ccc(Nc3ncc4c5ccncc5n(C5CCCC5)c4n3)nn2)CC1` [Example 446], which IC50 (Cdk4/CyclinD1) is on record?
Its IC50 is 1.3 nM.

And the IC50 (Cdk6/CyclinD3)?
The IC50 was 4.8 nM.

With `CC1(C)CN(c2ccc(Nc3ncc4c5ccccc5n(C5CCCC5)c4n3)nn2)CCN1` [Example 299] as the compound, how does the IC50 (Cdk4/CyclinD1) read?
The IC50 was 60 nM.

And the IC50 (Cdk6/CyclinD3)?
The IC50 was 34 nM.

Which IC50 (Cdk4/CyclinD1) does the source give for `C[C@H]1CN(c2ccc(Nc3ncc4c5ccccc5n(C5CCCC5)c4n3)nn2)CCN1` [Example 302] here?
Its IC50 is 47 nM.

And the IC50 (Cdk6/CyclinD3)?
Its IC50 is 23 nM.

Which IC50 (Cdk4/CyclinD1) does the source give for `CC[C@@H](C)n1c2cnccc2c2cnc(Nc3ccc(N4CCC(NC)CC4)cn3)nc21` [Example 325] here?
The IC50 was 11 nM.

And the IC50 (Cdk6/CyclinD3)?
The IC50 was 42 nM.

Which results are given for `FC(F)(F)CNC1CCN(c2ccc(Nc3ncc4c5ccncc5n(C5CCCC5)c4n3)nn2)CC1` [Example 456]?
IC50 (Cdk4/CyclinD1): 110 nM; IC50 (Cdk6/CyclinD3): 380 nM

What does the source list for `CC[C@@H](C)n1c2cnccc2c2cnc(Nc3ccc(N4CC[C@@H](O)C4)nn3)nc21` [Example 319]?
IC50 (Cdk4/CyclinD1): 22 nM; IC50 (Cdk6/CyclinD3): 49 nM

With `c1ccc2c(c1)c1cnc(Nc3ccc(N4CCNCC4)cn3)nc1n2C1CCOCC1` [Example 38, (5-piperazin-1-yl-pyridin-2-yl)-[9-(tetrahydro-pyran-4-yl)-9H-pyrimido[4,5-b]indol-2-yl]-amine] as the compound, how does the IC50 (Cdk4/CyclinD1) read?
Its IC50 is 2.1 nM.

And the IC50 (Cdk6/CyclinD3)?
The IC50 was 15.3 nM.

Which IC50 (Cdk4/CyclinD1) does the source give for `C[C@H](O)CNc1ccc(Nc2ncc3c4ccncc4n(C4CCCC4)c3n2)nn1` [Example 294] here?
Its IC50 is 5.9 nM.

And the IC50 (Cdk6/CyclinD3)?
The IC50 was 26 nM.

For `c1cc2c3cnc(Nc4ccc(N5CCNCC5)cc4)nc3n(C3CCCC3)c2cn1` [Example 3, (9-Cyclopentyl-9H-pyrido[4′,3′:4,5]pyrrolo[2,3-d]pyrimidin-2-yl)-(4-piperazin-1-yl-phenyl)-amine], which IC50 (Cdk4/CyclinD1) is on record?
The IC50 was 0.45 nM.

What about the IC50 (Cdk6/CyclinD3) of the same compound?
Its IC50 is 2.9 nM.

Which results are given for `c1cc2c3cnc(Nc4ccc(N[C@H]5CCNC5)cn4)nc3n(C3CCCC3)c2cn1` [Example 64]?
IC50 (Cdk4/CyclinD1): 2.8 nM; IC50 (Cdk6/CyclinD3): 24 nM

Which IC50 (Cdk4/CyclinD1) does the source give for `CNC1CCN(c2ccc(Nc3ncc4c5ccncc5n(C5CCCC5)c4n3)nn2)CC1` [Example 77] here?
The IC50 was 3 nM.

And the IC50 (Cdk6/CyclinD3)?
Its IC50 is 11 nM.

Which results are given for `C[C@H]1CN(c2ccc(Nc3ncc4c5ccncc5n(C5CCC5)c4n3)nc2)CCN1` [Example 344]?
IC50 (Cdk4/CyclinD1): 16 nM; IC50 (Cdk6/CyclinD3): 10 nM

For `C[C@H](CO)NC1CCN(c2ccc(Nc3ncc4c5ccncc5n(C5CCCC5)c4n3)nn2)CC1` [Example 444], which IC50 (Cdk4/CyclinD1) is on record?
Its IC50 is 1.9 nM.

What about the IC50 (Cdk6/CyclinD3) of the same compound?
Its IC50 is 11 nM.

With `C1=C(c2ccc(Nc3ncc4c5ccncc5n(C5CCCC5)c4n3)nn2)CCNC1` [Example 255, 9-Cyclopentyl-N-(6-(1,2,3,6-tetrahydro-4-pyridinyl)-3-pyridazinyl)-9H-pyrido[4′,3′:4.5]pyrrolo[2,3-d]pyrimidin-2-amine] as the compound, how does the IC50 (Cdk4/CyclinD1) read?
Its IC50 is 5.6 nM.

What about the IC50 (Cdk6/CyclinD3) of the same compound?
The IC50 was 60 nM.

Which results are given for `c1cc2c3cnc(Nc4ccc(N5CCCCC5)nn4)nc3n(C3CCCC3)c2cn1` [Example 107]?
IC50 (Cdk4/CyclinD1): 8.4 nM; IC50 (Cdk6/CyclinD3): 48 nM

With `OCC(CO)NC1CCN(c2ccc(Nc3ncc4c5ccncc5n(C5CCCC5)c4n3)nn2)CC1` [Example 445] as the compound, how does the IC50 (Cdk4/CyclinD1) read?
Its IC50 is 2.2 nM.

What about the IC50 (Cdk6/CyclinD3) of the same compound?
Its IC50 is 6.3 nM.

For `NCC1CCN(c2ccc(Nc3ncc4c5ccncc5n(C5CCCC5)c4n3)nn2)CC1` [Example 101, 4-Aminomethyl-1-(6-((9-cyclopentyl-9H-pyrido[4′,3′:4,5]pyrrolo[2,3-d]pyrimidin-2-yl)amino)-3-pyridazinyl)-piperidine], which IC50 (Cdk4/CyclinD1) is on record?
Its IC50 is 4 nM.

What about the IC50 (Cdk6/CyclinD3) of the same compound?
Its IC50 is 8.8 nM.

With `Cn1c(=O)ccc2c3cnc(Nc4ccc(N5CC[C@@H](O)C5)cn4)nc3n(C3CCCC3)c21` [Example 185, 9-Cyclopentyl-2-((5-((3R)-3-hydroxy-1-pyrrolidinyl)-2-pyridinyl)amino)-8-methyl-8,9-dihydro-7H-pyrido[3′,2′:4,5]pyrrolo[2,3-d]pyrimidin-7-one] as the compound, how does the IC50 (Cdk4/CyclinD1) read?
The IC50 was 145 nM.

And the IC50 (Cdk6/CyclinD3)?
The IC50 was 149 nM.

Which IC50 (Cdk4/CyclinD1) does the source give for `CC1CN(c2ccc(Nc3ncc4c5ccccc5n(C5CCCC5)c4n3)nc2)CC(C)N1` (centres unmarked) [Example 303] here?
Its IC50 is 31 nM.

What about the IC50 (Cdk6/CyclinD3) of the same compound?
The IC50 was 30 nM.

For `CNC1CCN(c2ccc(Nc3ncc4c5ccncc5n(C5CCC5)c4n3)nc2)CC1` [Example 345], which IC50 (Cdk4/CyclinD1) is on record?
Its IC50 is 21 nM.

And the IC50 (Cdk6/CyclinD3)?
The IC50 was 15 nM.

Which results are given for `OCCCNc1ccc(Nc2ncc3c4ccncc4n(C4CCCC4)c3n2)nn1` [Example 297]?
IC50 (Cdk4/CyclinD1): 1.4 nM; IC50 (Cdk6/CyclinD3): 13 nM

For `CC[C@@H](C)n1c2cnccc2c2cnc(Nc3ccc(N4CCC(N(C)C)CC4)nn3)nc21` [Example 316], which IC50 (Cdk4/CyclinD1) is on record?
The IC50 was 36 nM.

And the IC50 (Cdk6/CyclinD3)?
The IC50 was 59 nM.
